Measurements taken from PubChem BioAssay AID248 (DTP/NCI, 2004).
Several values for one entry are separate records, joined by “and”; a condition that tells them apart may be missing. Equal values may be shown once. Toxic doses and inconclusive results are not listed. Cut-off read from the data, not from the text of the source: active = T/C of 150% or more; inactive = T/C below 125%.

System: L1210 leukemia ip in BDF1 mice, survival T/C
Assay: NCI In Vivo Anticancer Drug Screen. Data for tumor model L1210 Leukemia (intraperitoneal) in B6D2F1 (BDF1) mice
Conditions: endpoint: mean survival time, higher = longer survival
Procedure, shortened: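 Survival endpoint. Drug-treated group vs vehicle group, expressed as T divided by C. Tumor passaged by transplantation.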

[1] = dose: 100.0 mg/kg/injection, schedule: Q01DX009 (ip), vehicle: saline with Tween-80
[2] = dose: 100.0 mg/kg/injection, schedule: Q04DX003 (ip), vehicle: saline with Tween-80
[3] = dose: 200.0 mg/kg/injection, schedule: Q04DX003 (ip), vehicle: saline with Tween-80
[4] = dose: 400.0 mg/kg/injection, schedule: Q04DX003 (ip), vehicle: saline with Tween-80
[5] = dose: 25.0 mg/kg/injection, schedule: Q01DX009 (ip), vehicle: Klucel (hydroxypropylcellulose) (HPC)
[6] = dose: 50.0 mg/kg/injection, schedule: Q01DX009 (ip), vehicle: Klucel (hydroxypropylcellulose) (HPC)
[7] = dose: 100.0 mg/kg/injection, schedule: Q01DX009 (ip), vehicle: Klucel (hydroxypropylcellulose) (HPC)
[8] = dose: 200.0 mg/kg/injection, schedule: Q01DX009 (ip), vehicle: saline
[9] = dose: 100.0 mg/kg/injection, schedule: Q04DX003 (ip), vehicle: saline
[10] = dose: 200.0 mg/kg/injection, schedule: Q04DX003 (ip), vehicle: saline
[11] = dose: 400.0 mg/kg/injection, schedule: Q04DX003 (ip), vehicle: saline
[12] = dose: 25.0 mg/kg/injection, schedule: Q01DX009 (ip), vehicle: saline with Tween-80
[13] = dose: 50.0 mg/kg/injection, schedule: Q01DX009 (ip), vehicle: saline with Tween-80

Measured: T/C

C=CCNC(=O)Oc1cccc(NC(=O)/C=C/C)c1
inactive: [1] 88 % of control | [2] 97 % of control | [3] 95 % of control | [4] 92 % of control

C=CCOC(=O)c1ccco1
inactive: [5] 98 % of control | [6] 106 % of control | [7] 94 % of control and 96 % of control

CC(=NC(Cc1ccccc1)C(=O)O)NC(Cc1ccccc1)C(=O)O (configuration not stated)
inactive: dose: 100.0 mg/kg/injection, schedule: Q01DX009 (ip), vehicle: saline 106 % of control | [8] 101 % of control | dose: 400.0 mg/kg/injection, schedule: Q01DX009 (ip), vehicle: saline 100 % of control

CC(C)(C)C(=O)CC(=O)C(C)(C)C.CC(C)(C)C(=O)CC(=O)C(C)(C)C.[Zn]
inactive: [2] 97 % of control | [3] 95 % of control

O=S(=O)(Cc1ccccc1)Cc1ccccc1
inactive: dose: 50.0 mg/kg/injection, schedule: Q01DX001 (ip), vehicle: saline 101 % of control | dose: 100.0 mg/kg/injection, schedule: Q01DX001 (ip), vehicle: saline 95 % of control | [2] 96 % of control | dose: 200.0 mg/kg/injection, schedule: Q01DX001 (ip), vehicle: saline 95 % of control | [3] 100 % of control | dose: 400.0 mg/kg/injection, schedule: Q01DX001 (ip), vehicle: saline 91 % of control | [4] 100 % of control

Cc1ccc(S(=O)(=O)Nc2ccc(I)c(Cl)c2Cl)cc1
inactive: [1] 101 % of control | dose: 200.0 mg/kg/injection, schedule: Q01DX009 (ip), vehicle: saline with Tween-80 104 % of control | dose: 400.0 mg/kg/injection, schedule: Q01DX009 (ip), vehicle: saline with Tween-80 110 % of control

NCCCN
inactive: [9] 97 % of control | [10] 98 % of control | [11] 98 % of control

FC(F)(F)c1cccc(B2OCCNCCO2)c1
inactive: [2] 106 % of control | [3] 95 % of control

COC(CNCCO)c1ccccc1 (configuration not stated)
inactive: [12] 104 % of control | [13] 98 % of control | [1] 106 % of control

CC(C)(C)NCC1C(c2ccccc2)C1c1ccccc1 (configuration not stated)
inactive: dose: 25.0 mg/kg/injection, schedule: Q04DX002 (ip), vehicle: Klucel (hydroxypropylcellulose) (HPC) 92 % of control | dose: 50.0 mg/kg/injection, schedule: Q04DX002 (ip), vehicle: Klucel (hydroxypropylcellulose) (HPC) 88 % of control

S=C(N/N=C/c1ccccn1)NC1CC2C=CC1C2 (configuration not stated)
inactive: [7] 100 % of control | dose: 200.0 mg/kg/injection, schedule: Q01DX009 (ip), vehicle: Klucel (hydroxypropylcellulose) (HPC) 95 % of control

C=C1CC[N+]2(CCCC)CCCC12 (configuration not stated)
inactive: dose: 12.5 mg/kg/injection, schedule: Q01DX009 (ip), vehicle: Klucel (hydroxypropylcellulose) (HPC) 103 % of control | [5] 97 % of control | [6] 95 % of control

O=C1CC2CC(=O)CC2C1 (configuration not stated)
inactive: dose: 100.0 mg/kg/injection, schedule: Q01DX001 (ip), vehicle: Klucel (hydroxypropylcellulose) (HPC) 104 % of control | [9] 105 % of control | dose: 200.0 mg/kg/injection, schedule: Q01DX001 (ip), vehicle: Klucel (hydroxypropylcellulose) (HPC) 97 % of control | [8] 90 % of control | [10] 105 % of control | dose: 400.0 mg/kg/injection, schedule: Q01DX001 (ip), vehicle: Klucel (hydroxypropylcellulose) (HPC) 98 % of control | [11] 94 % of control

CCS[P+](NC1CCCCC1)(NC1CCCCC1)NC1CCCCC1
inactive: [12] 94 % of control | dose: 25.0 mg/kg/injection, schedule: Q04DX002 (ip), vehicle: saline with Tween-80 103 % of control | [13] 100 % of control | dose: 50.0 mg/kg/injection, schedule: Q04DX002 (ip), vehicle: saline with Tween-80 98 % of control | dose: 100.0 mg/kg/injection, schedule: Q04DX002 (ip), vehicle: saline with Tween-80 88 % of control

O=c1oc(=O)c2ccccc2c2ccccc12
inactive: dose: 100.0 mg/kg/injection, schedule: Q01DX001 (ip), vehicle: other 93 % of control | dose: 200.0 mg/kg/injection, schedule: Q01DX001 (ip), vehicle: other 96 % of control | dose: 400.0 mg/kg/injection, schedule: Q01DX001 (ip), vehicle: other 107 % of control
